Measurements: the supplement of paper PMC10307832

Experiments:
Experiment in all cases: relative viability (nuclei count vs DMSO), 5 days (fraction); higher = more cells survive
Avagacestat + AZD7762 = compound: NC(=O)[C@@H](CCC(F)(F)F)N(Cc1ccc(-c2ncon2)cc1F)S(=O)(=O)c1ccc(Cl)cc1 [Avagacestat] + NC(=O)Nc1cc(-c2cccc(F)c2)sc1C(=O)N[C@H]1CCCNC1 [AZD7762] (partner 0.2 µM)
Method in brief: (§1)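 Relative viability is defined as nuclei in treated wells over nuclei in vehicle wells. Duplicate plates were run and medians reported. Lung cancer cell lines in 1536-well plates were dosed by pin tool one day after seeding, with one drug or with a fixed anchor-drug dose plus five library-drug doses (not always all listed) in √10 steps, and nuclei were counted after 5 days.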

Avagacestat + Pemetrexed = compound: NC(=O)[C@@H](CCC(F)(F)F)N(Cc1ccc(-c2ncon2)cc1F)S(=O)(=O)c1ccc(Cl)cc1 [Avagacestat] + Nc1nc2[nH]cc(CCc3ccc(C(=O)N[C@@H](CCC(=O)O)C(=O)O)cc3)c2c(=O)[nH]1 [Pemetrexed] (partner 0.2 µM)
Method in brief: as §1

Avagacestat + OSI-027 = compound: NC(=O)[C@@H](CCC(F)(F)F)N(Cc1ccc(-c2ncon2)cc1F)S(=O)(=O)c1ccc(Cl)cc1 [Avagacestat] + COc1cccc2cc(-c3nc([C@H]4CC[C@H](C(=O)O)CC4)n4ncnc(N)c34)[nH]c12 [OSI-027] (partner 0.5 µM)
Method in brief: as §1

Avagacestat + Foretinib = compound: NC(=O)[C@@H](CCC(F)(F)F)N(Cc1ccc(-c2ncon2)cc1F)S(=O)(=O)c1ccc(Cl)cc1 [Avagacestat] + COc1cc2c(Oc3ccc(NC(=O)C4(C(=O)Nc5ccc(F)cc5)CC4)cc3F)ccnc2cc1OCCCN1CCOCC1 [Foretinib] (partner 0.25 µM)
Method in brief: as §1

NCI-H2087 was tested, and the relative viability (Avagacestat + AZD7762; first compound 0.08 µM) was 1.41, the relative viability (Avagacestat + AZD7762; first compound 0.253 µM) was 1.65 and the relative viability (Avagacestat + AZD7762; first compound 0.8 µM) was 1.31. For the same cell line, the relative viability (Avagacestat + AZD7762; first compound 2.53 µM) was 1.24, the relative viability (Avagacestat + AZD7762; first compound 8 µM) was 1.18 and the relative viability (Avagacestat + Pemetrexed; first compound 0.08 µM) was 0.658. For the same cell line, the relative viability (Avagacestat + Pemetrexed; first compound 0.253 µM) was 0.651, the relative viability (Avagacestat + Pemetrexed; first compound 0.8 µM) was 0.741 and the relative viability (Avagacestat + Pemetrexed; first compound 2.53 µM) was 0.632. The relative viability (Avagacestat + Pemetrexed; first compound 8 µM) was 0.662, the relative viability (Avagacestat + OSI-027; first compound 0.08 µM) was 0.631 and the relative viability (Avagacestat + OSI-027; first compound 0.253 µM) was 0.617. It also gave a relative viability (Avagacestat + OSI-027; first compound 0.8 µM) of 0.63, a relative viability (Avagacestat + OSI-027; first compound 2.53 µM) of 0.54 and a relative viability (Avagacestat + OSI-027; first compound 8 µM) of 0.575. The relative viability (Avagacestat + Foretinib; first compound 0.08 µM) was 1.11, the relative viability (Avagacestat + Foretinib; first compound 0.253 µM) was 1.39 and the relative viability (Avagacestat + Foretinib; first compound 0.8 µM) was 1.09. The relative viability (Avagacestat + Foretinib; first compound 2.53 µM) was 1.09 and the relative viability (Avagacestat + Foretinib; first compound 8 µM) was 1.23.

Work on RERF-LC-KJ yielded a relative viability (Avagacestat + AZD7762; first compound 0.08 µM) of 1.02, a relative viability (Avagacestat + AZD7762; first compound 0.253 µM) of 1.14 and a relative viability (Avagacestat + AZD7762; first compound 0.8 µM) of 1.24. For the same cell line, the relative viability (Avagacestat + AZD7762; first compound 2.53 µM) was 0.929, the relative viability (Avagacestat + AZD7762; first compound 8 µM) was 0.751 and the relative viability (Avagacestat + Pemetrexed; first compound 0.08 µM) was 0.479. For the same cell line, the relative viability (Avagacestat + Pemetrexed; first compound 0.253 µM) was 0.477, the relative viability (Avagacestat + Pemetrexed; first compound 0.8 µM) was 0.461 and the relative viability (Avagacestat + Pemetrexed; first compound 2.53 µM) was 0.465. For the same cell line, the relative viability (Avagacestat + Pemetrexed; first compound 8 µM) was 0.437, the relative viability (Avagacestat + OSI-027; first compound 0.08 µM) was 0.57 and the relative viability (Avagacestat + OSI-027; first compound 0.253 µM) was 0.65. For the same cell line, the relative viability (Avagacestat + OSI-027; first compound 0.8 µM) was 0.695, the relative viability (Avagacestat + OSI-027; first compound 2.53 µM) was 0.54 and the relative viability (Avagacestat + OSI-027; first compound 8 µM) was 0.547. It also gave a relative viability (Avagacestat + Foretinib; first compound 0.08 µM) of 0.987, a relative viability (Avagacestat + Foretinib; first compound 0.253 µM) of 1.07 and a relative viability (Avagacestat + Foretinib; first compound 0.8 µM) of 0.993. For the same cell line, the relative viability (Avagacestat + Foretinib; first compound 2.53 µM) was 0.859 and the relative viability (Avagacestat + Foretinib; first compound 8 µM) was 0.842.

In the case of NCI-H2342, the relative viability (Avagacestat + AZD7762; first compound 0.08 µM) is reported as 0.479, the relative viability (Avagacestat + AZD7762; first compound 0.253 µM) is reported as 0.536 and the relative viability (Avagacestat + AZD7762; first compound 0.8 µM) is reported as 0.589. For the same cell line, the relative viability (Avagacestat + AZD7762; first compound 2.53 µM) was 0.499, the relative viability (Avagacestat + AZD7762; first compound 8 µM) was 0.438 and the relative viability (Avagacestat + Pemetrexed; first compound 0.08 µM) was 0.849. For the same cell line, the relative viability (Avagacestat + Pemetrexed; first compound 0.253 µM) was 0.803, the relative viability (Avagacestat + Pemetrexed; first compound 0.8 µM) was 0.903 and the relative viability (Avagacestat + Pemetrexed; first compound 2.53 µM) was 0.725. For the same cell line, the relative viability (Avagacestat + Pemetrexed; first compound 8 µM) was 0.782, the relative viability (Avagacestat + OSI-027; first compound 0.08 µM) was 0.589 and the relative viability (Avagacestat + OSI-027; first compound 0.253 µM) was 0.597. The relative viability (Avagacestat + OSI-027; first compound 0.8 µM) was 0.674, the relative viability (Avagacestat + OSI-027; first compound 2.53 µM) was 0.602 and the relative viability (Avagacestat + OSI-027; first compound 8 µM) was 0.572. The relative viability (Avagacestat + Foretinib; first compound 0.08 µM) was 1.22, the relative viability (Avagacestat + Foretinib; first compound 0.253 µM) was 1.05 and the relative viability (Avagacestat + Foretinib; first compound 0.8 µM) was 0.924. It also gave a relative viability (Avagacestat + Foretinib; first compound 2.53 µM) of 1.02 and a relative viability (Avagacestat + Foretinib; first compound 8 µM) of 0.939.

In the case of A-427, the relative viability (Avagacestat + AZD7762; first compound 0.08 µM) is reported as 0.752, the relative viability (Avagacestat + AZD7762; first compound 0.253 µM) is reported as 0.753 and the relative viability (Avagacestat + AZD7762; first compound 0.8 µM) is reported as 0.703. The relative viability (Avagacestat + AZD7762; first compound 2.53 µM) was 0.619, the relative viability (Avagacestat + AZD7762; first compound 8 µM) was 0.68 and the relative viability (Avagacestat + Pemetrexed; first compound 0.08 µM) was 1.07. The relative viability (Avagacestat + Pemetrexed; first compound 0.253 µM) was 1.09, the relative viability (Avagacestat + Pemetrexed; first compound 0.8 µM) was 1.22 and the relative viability (Avagacestat + Pemetrexed; first compound 2.53 µM) was 1.04. It also gave a relative viability (Avagacestat + Pemetrexed; first compound 8 µM) of 1.07, a relative viability (Avagacestat + OSI-027; first compound 0.08 µM) of 0.543 and a relative viability (Avagacestat + OSI-027; first compound 0.253 µM) of 0.474. It also gave a relative viability (Avagacestat + OSI-027; first compound 0.8 µM) of 0.421, a relative viability (Avagacestat + OSI-027; first compound 2.53 µM) of 0.403 and a relative viability (Avagacestat + OSI-027; first compound 8 µM) of 0.445. It also gave a relative viability (Avagacestat + Foretinib; first compound 0.08 µM) of 1.37, a relative viability (Avagacestat + Foretinib; first compound 0.253 µM) of 1.18 and a relative viability (Avagacestat + Foretinib; first compound 0.8 µM) of 1.12. For the same cell line, the relative viability (Avagacestat + Foretinib; first compound 2.53 µM) was 1.11 and the relative viability (Avagacestat + Foretinib; first compound 8 µM) was 1.08.

For H3255, the relative viability (Avagacestat + AZD7762; first compound 0.08 µM) was 1.02, the relative viability (Avagacestat + AZD7762; first compound 0.253 µM) was 0.988 and the relative viability (Avagacestat + AZD7762; first compound 0.8 µM) was 1.22. It also gave a relative viability (Avagacestat + AZD7762; first compound 2.53 µM) of 0.928, a relative viability (Avagacestat + AZD7762; first compound 8 µM) of 0.775 and a relative viability (Avagacestat + Pemetrexed; first compound 0.08 µM) of 0.57. It also gave a relative viability (Avagacestat + Pemetrexed; first compound 0.253 µM) of 0.622, a relative viability (Avagacestat + Pemetrexed; first compound 0.8 µM) of 0.591 and a relative viability (Avagacestat + Pemetrexed; first compound 2.53 µM) of 0.552. The relative viability (Avagacestat + Pemetrexed; first compound 8 µM) was 0.557, the relative viability (Avagacestat + OSI-027; first compound 0.08 µM) was 0.642 and the relative viability (Avagacestat + OSI-027; first compound 0.253 µM) was 0.74. For the same cell line, the relative viability (Avagacestat + OSI-027; first compound 0.8 µM) was 0.828, the relative viability (Avagacestat + OSI-027; first compound 2.53 µM) was 0.625 and the relative viability (Avagacestat + OSI-027; first compound 8 µM) was 0.621. For the same cell line, the relative viability (Avagacestat + Foretinib; first compound 0.08 µM) was 0.857, the relative viability (Avagacestat + Foretinib; first compound 0.253 µM) was 0.913 and the relative viability (Avagacestat + Foretinib; first compound 0.8 µM) was 0.934. For the same cell line, the relative viability (Avagacestat + Foretinib; first compound 2.53 µM) was 0.891 and the relative viability (Avagacestat + Foretinib; first compound 8 µM) was 0.949.

HCC-78 was tested, and the relative viability (Avagacestat + AZD7762; first compound 0.08 µM) was 0.61, the relative viability (Avagacestat + AZD7762; first compound 0.253 µM) was 0.615 and the relative viability (Avagacestat + AZD7762; first compound 0.8 µM) was 0.665. For the same cell line, the relative viability (Avagacestat + AZD7762; first compound 2.53 µM) was 0.461, the relative viability (Avagacestat + AZD7762; first compound 8 µM) was 0.529 and the relative viability (Avagacestat + Pemetrexed; first compound 0.08 µM) was 0.901. For the same cell line, the relative viability (Avagacestat + Pemetrexed; first compound 0.253 µM) was 0.976, the relative viability (Avagacestat + Pemetrexed; first compound 0.8 µM) was 0.933 and the relative viability (Avagacestat + Pemetrexed; first compound 2.53 µM) was 0.883. The relative viability (Avagacestat + Pemetrexed; first compound 8 µM) was 0.851, the relative viability (Avagacestat + OSI-027; first compound 0.08 µM) was 0.381 and the relative viability (Avagacestat + OSI-027; first compound 0.253 µM) was 0.4. The relative viability (Avagacestat + OSI-027; first compound 0.8 µM) was 0.349, the relative viability (Avagacestat + OSI-027; first compound 2.53 µM) was 0.373 and the relative viability (Avagacestat + OSI-027; first compound 8 µM) was 0.401. It also gave a relative viability (Avagacestat + Foretinib; first compound 0.08 µM) of 0.588, a relative viability (Avagacestat + Foretinib; first compound 0.253 µM) of 0.523 and a relative viability (Avagacestat + Foretinib; first compound 0.8 µM) of 0.542. For the same cell line, the relative viability (Avagacestat + Foretinib; first compound 2.53 µM) was 0.492 and the relative viability (Avagacestat + Foretinib; first compound 8 µM) was 0.54.

For ABC-1, the relative viability (Avagacestat + AZD7762; first compound 0.08 µM) was 0.864, the relative viability (Avagacestat + AZD7762; first compound 0.253 µM) was 1.02 and the relative viability (Avagacestat + AZD7762; first compound 0.8 µM) was 0.895. For the same cell line, the relative viability (Avagacestat + AZD7762; first compound 2.53 µM) was 0.94, the relative viability (Avagacestat + AZD7762; first compound 8 µM) was 0.664 and the relative viability (Avagacestat + OSI-027; first compound 0.08 µM) was 0.442. For the same cell line, the relative viability (Avagacestat + OSI-027; first compound 0.253 µM) was 0.537, the relative viability (Avagacestat + OSI-027; first compound 0.8 µM) was 0.637 and the relative viability (Avagacestat + OSI-027; first compound 2.53 µM) was 0.401. For the same cell line, the relative viability (Avagacestat + OSI-027; first compound 8 µM) was 0.418, the relative viability (Avagacestat + Foretinib; first compound 0.08 µM) was 1.16 and the relative viability (Avagacestat + Foretinib; first compound 0.253 µM) was 1.06. For the same cell line, the relative viability (Avagacestat + Foretinib; first compound 0.8 µM) was 1.15, the relative viability (Avagacestat + Foretinib; first compound 2.53 µM) was 1 and the relative viability (Avagacestat + Foretinib; first compound 8 µM) was 1.06.

With COR-L23 the relative viability (Avagacestat + Pemetrexed; first compound 0.08 µM) was 0.178, the relative viability (Avagacestat + Pemetrexed; first compound 0.253 µM) was 0.197 and the relative viability (Avagacestat + Pemetrexed; first compound 0.8 µM) was 0.207. The relative viability (Avagacestat + Pemetrexed; first compound 2.53 µM) was 0.214, the relative viability (Avagacestat + Pemetrexed; first compound 8 µM) was 0.201 and the relative viability (Avagacestat + OSI-027; first compound 0.08 µM) was 1.06. It also gave a relative viability (Avagacestat + OSI-027; first compound 0.253 µM) of 1.02, a relative viability (Avagacestat + OSI-027; first compound 0.8 µM) of 0.906 and a relative viability (Avagacestat + OSI-027; first compound 2.53 µM) of 0.697. The relative viability (Avagacestat + OSI-027; first compound 8 µM) was 0.661, the relative viability (Avagacestat + Foretinib; first compound 0.08 µM) was 1.12 and the relative viability (Avagacestat + Foretinib; first compound 0.253 µM) was 1.28. The relative viability (Avagacestat + Foretinib; first compound 0.8 µM) was 1.1, the relative viability (Avagacestat + Foretinib; first compound 2.53 µM) was 0.901 and the relative viability (Avagacestat + Foretinib; first compound 8 µM) was 0.952.
